Results reported in patent US5849801A, “4-amino-5-oxy-2,6,6-trimethyl-2-cycloheptene compounds” (Tokyo Tanabe Company Limited, priority 1995, dated 1998).
Structures can show the parent of a compound that is named as a salt.

Legend:
[1] = tested on: histamine-induced guinea pig bronchoconstriction; assay: Effect on histamine-induced guinea pig bronchoconstriction models; format: in vivo, male Hartley guinea pigs; conditions: inhalation for 30 seconds, hydrochloride, histamine 3 μg/kg i.v. after 2 minutes
Method: After urethane anesthetization of male Hartley guinea pigs (body weight: 350~450 g, 5 per group, Nihon Crea Co.), a small cannula was inserted into trachea. Next, gallamine triethiodide (1 mg/kg) was intravenously administered, and the tracheal cannula was connected to a constant volume respirator. The artificial respiration was conducted with an air volume per breath of 7~10 ml, a breath frequency of 60/min and a lung application pressure of 10 cm water. The volume of air overflowing from the legs on the cannula side was recorded on a polygraph (RM6100: product of Nihon Koden Co.) with a model 7020 bronchospasm transducer (product of Ugo Basile). Hydrochloride of the test compounds were dissolved in physiological saline, and inhalation was performed with reference to the method of Minami et al. […] The inhalation load apparatus was prepared by directly incorporating an ultrasonic nebulizer into an artificial respiration circuit (Omron ultrasonic aspirator NE-U11B, product of […] Electric Co.). The test compound (mg/0.5 ml) was administered by inhalation for 30 seconds, and after 2 minutes histamine (3 μg/kg) was intravenously administered and the air overflow volume was measured. The bronchoconstriction rate was calculated as a percentage with 100 being the height of contraction when the airway was completely constricted. The inhibition rate was calculated by dividing the contraction rate of the test compound group by the contraction rate of the control group.

[2] = tested on: rat peripheral arterial occlusion models; assay: Effect on rat peripheral arterial occlusion models (5% lactic acid induced); format: in vivo, SD rats; conditions: i.v., lower leg lesions at 14 days
Method: Models were prepared following the method of Iwamoto et al. (Iwamoto, M. et al., Japanese Pharmacology & Therapeutics, Vol. 14, Suppl. 5, p. 41, 1986). Upon minimal dissection of the femoral regions of SD rats (6 per group) with a body weight of 250~350 g under Nembutal anesthesia, 0.1 ml of 5% lactic acid was administered intraarterially. The rats were raised for 14 days under normal conditions, and observed for lesions of the lower legs. The grading for the lesions was: "1" for nigrities only at the nail tips, "2" for nigrities up to the digits, "3" for necrosis of the digits, and "4" deciduation of the digits. Each of the digits of the lower legs on the side where lactic acid had been administered were graded, and the overall grade was determined as the index of lesions. The disorder inhibition rate was determined by dividing the index of lesions in the drug-administered group by the index of lesions of the control group. The drugs were dissolved in physiological saline or dimethylsulfoxide, and injected through the caudal vein 5 minutes prior to injection of the 5% lactic acid.

[3] = tested on: platelet aggregation induced by arachidonic acid; assay: Inhibiting effect on platelet aggregation (in vitro), arachidonic acid as aggregating agent; format: cell-based, Japanese white male house rabbits; conditions: Oryctolagus cuniculus; arachidonic acid 68.6 μg/ml, 37° C., platelet suspension
Method: (§1) Platelet rich plasma was prepared from Japanese white male house rabbits (body weight: 2.5~3.0 kg) following the method of Suzuki et al. (Suzuki, K. et al., The Clinical Report, Vol. 21, No. 13, p. 5263, 1987). The resulting platelet rich plasma solution was appropriately diluted with a Tris-Tyrode buffer solution (pH 7.4) to prepare a 4×10^5 platelet/μl platelet suspension to be used for the test. The platelet aggregation was measured using a platelet aggregometer (NBS Hematoracer 601, product of Nikoh Bioscience Co.). Specifically, 250 μl of the platelet suspension, 5 μl of a 96 mM calcium chloride solution and 5 μl of the test compound solution dissolved in methanol were added to a cuvette, and after incubating for one minute at 37° C., 20 μl of an aggregating agent was added and the maximum degree of aggregation occurring was determined. The aggregating agents used were platelet activating factor (PAF) (2.5 ng/ml) and arachidonic acid (68.6 μg/ml). The 50% inhibition concentration (IC50) was calculated from the results of measurement with various concentrations of each test compound.

[4] = tested on: calcium contraction of the thoracic aorta; assay: Effect on calcium contraction (in vitro), thoracic aorta specimens; parameters: species or system Male SD rats; conditions: Rattus norvegicus; 1×10^-7 M in dimethylsulfoxide; 0.3 mM calcium chloride, 80 mM KCl buffer
Method: This was investigated according to the method of Ishibashi, et al. (Ishibashi, A. et al., Folia Pharmacologica Japonica, Vol. 82, p. 361, 1983). Male SD rats of body weight approximately 300 g were used to prepare thoracic aorta extract specimens, which were suspended and immobilized in a organ bath containing 10 ml of Krebs-Henseleit buffer solution at 37° C. through which a mixed gas of oxygen (95%) and carbon dioxide (5%) had been passed. After equilibrating the specimens, they were equilibrated in a buffer solution without calcium chloride and then in an isotonic calcium-free 80 mM potassium chloride buffer solution replaced with potassium ions, and a resting tension of 0.2 g was applied. Contraction was induced by addition of 0.3 mM calcium chloride. The test compounds were added 10 minutes prior to addition of the calcium solution. The percent inhibition of the test compounds were calculated using the first contraction as the control (100% contraction). The test compounds were used for the test as solutions in dimethylsulfoxide at a 1×10^-7 M concentration.

[5] = tested on: blood pressure of anesthetized rats; assay: Effect on blood pressure of anesthetized rats; format: in vivo, Male SD rats; conditions: Rattus norvegicus, intravenous, diastolic, urethane anesthesia, read-out: Reduction of blood pressure (%)
Method: Male SD rats (body weight: 250~350 g, product of Nihon Crea Co.) were placed under urethane anesthesia and then a sphygmomanometric pressure transducer was inserted into the left cervical artery and recording was made on a polygraph (RM6100, product of Nihon Koden Co.) using a strain pressure […], product of Nihon Koden Co.). The test compounds were dissolved in physiological saline and administered intravenously. The change in blood pressure was indicated as the reduction rate from the initial value of diastolic blood pressure just prior to administration of the test compound.

[6] = tested on: antigen-induced guinea pig bronchoconstriction; assay: Effect on antigen-induced guinea pig bronchoconstriction; format: in vivo, Male Hartley guinea pigs; conditions: inhaled one minute before i.v. DNP-bovine serum albumin; observed 15 minutes; passively sensitized
Method: Male Hartley guinea pigs (body weight: 300~450 g, Nihon Crea Co.) were intraperitonealy administered anti-DNP-Ascarls serum (1024-fold antibody titer) at 0.5 ml/kg. After 24 hours, under urethane anesthesia there were inserted a cannula into the trachea, a sphygmomanometric cannula into the left cervical artery and a drug injection cannula into the right jugular vein, and gallamine triethiodide (1.0 mg/0.5 ml/kg) was intravenously administered and connected to an artificial respirator (product of Ugo Basile). For the test, diphenhydramine (60 mg/ml/kg) was intraperitoneally administered, the compound of Example 16 was inhaled as the test compound after 14 minutes, and following intravenous administration of DNP-bovine serum albumin (1.0 mg protein/0.5 ml/kg) one minute after administration of the test compound, the degree of bronchoconstriction was observed over a period of 15 minutes. The bronchoconstriction rate was given as a percentage of the maximum air over flow volume obtained by clamping off the trachea. The test compounds were inhaled by nebulizing for 30 seconds with an ultrasonic nebulizer.

[7] = tested on: platelet aggregation induced by platelet activating factor (PAF); assay: Inhibiting effect on platelet aggregation (in vitro), platelet activating factor (PAF) as aggregating agent; format: cell-based, Japanese white male house rabbits; conditions: Oryctolagus cuniculus; PAF 2.5 ng/ml, 37° C., platelet suspension
Method: as §1

CC1=CC(N2CCCCC2)C(O)C(C)(C)CC1=O (single isomer, unassigned; (-)) [(-) Compound of Example 35, (-)-5-hydroxy-4-piperidino-2,6,6-trinethyl-2-cyclohepten-1-one]
Brochoconstriction inhibition rate ([1]; 10.0 mg/0.5 ml): 64%

CC1=CC(NCc2ccccc2)C(O)C(C)(C)CC1=O (stereo not drawn) [Example 1, 4-benzylamino-5-hydroxy-2,6,6-trimethyl-2-cyclohepten-1-one]
Inhibition rate ([2]; 5 mg/kg, in physiological saline): 42% | IC50 [3]: 100 µM | inhibition at 0.1 µM [4]: 48%

CC1=CC(NCCc2ccccc2)C(O)C(C)(C)CC1=O (stereo not drawn) [Example 2, 4-(2-phenylethylamino)-5-hydroxy-2,6,6-trimethyl-2-cyclohepten-1-one]
inhibition in vivo at 1 mg/kg [5]: 16% | inhibition in vivo at 3 mg/kg [5]: 31%

CCOC(=O)c1ccc(CNC2C=C(C)C(=O)CC(C)(C)C2O)cc1 (stereo not drawn) [Example 4, 5-hydroxy-4-(4-ethoxycarbonylbenzylamino)-2,6,6-trimethyl-2-cyclohepten-1-one]
inhibition at 0.1 µM [4]: 33%

CC1=CC(Nc2ccccc2)C(O)C(C)(C)CC1=O (stereo not drawn) [Example 5, 5-hydroxy-4-phenylamino-2,6,6-trimethyl-2-cyclohepten-1-one]
Inhibition rate ([2]; 5 mg/kg, in DMSO): 35%

CC1=CC(NC2CCCC2)C(O)C(C)(C)CC1=O (stereo not drawn) [Example 7, 4-cyclopentylamino-5-hydroxy-2,6,6-trimethyl-2-cyclohepten-1-one hydrochloride]
inhibition in vivo at 10 mg/kg [5]: 34%

CC1=CC(NC2CCCCC2)C(O)C(C)(C)CC1=O (stereo not drawn) [Example 8, 4-cyclohexylamino-5-hydroxy-2,6,6-trimethy-2-cyclohepten-1-one hydrochloride]
inhibition in vivo at 10 mg/kg [5]: 45%

CCCCNC1C=C(C)C(=O)CC(C)(C)C1O.Cl (stereo not drawn) [Example 9, 4-(1-butylamino)-5-hydroxy-2,6,6-trimethyl-2-cyclohepten-1-one hydrochloride]
Brochoconstriction inhibition rate ([1]; 1.0 mg/0.5 ml): 57% | inhibition in vivo at 1 mg/kg [5]: 14% | inhibition in vivo at 3 mg/kg [5]: 32% | inhibition in vivo at 10 mg/kg [5]: 51%

COCCNC1C=C(C)C(=O)CC(C)(C)C1O (stereo not drawn) [Example 10, 5-hydroxy-4-(2-methoxyethylamino)-2,6,6-trimethyl-2-cyclohepten-1-one]
inhibition at 0.1 µM [4]: 32%

CC1=CC(NC(C)(C)C)C(O)C(C)(C)CC1=O (stereo not drawn) [Example 12, 5-hydroxy-4-(tert-butylamino)-2,6,6-trimethyl-2-cyclohepten-1-one]
inhibition in vivo at 10 mg/kg [5]: 33%

CCN(CC)C1C=C(C)C(=O)CC(C)(C)C1O (stereo not drawn) [Example 13, 4-diethylamino-5-hydroxy-2,6,6-trimethyl-2-cyclohepten-1-one]
inhibition in vivo at 10 mg/kg [5]: 28%

CC1=CC(N2CCCC2)C(O)C(C)(C)CC1=O.Cl (stereo not drawn) [Example 15, 5-hydroxy-4-pyrrolidino-2,6,6-trimethyl-2-cyclohepten-1-one hydrochloride]
Brochoconstriction inhibition rate ([1]; 3.0 mg/0.5 ml): 73% | inhibition in vivo at 10 mg/kg [5]: 26%

CC1=CC(N2CCCCC2)C(O)C(C)(C)CC1=O (stereo not drawn) [Example 16, 5-hydroxy-4-piperidino-2,6,6-trinethyl-2-cyclohepten-1-one hydrochloride]
Inhibition rate ([2]; 3 mg/kg, solvent physiological saline (printed once, above)): 65% | Inhibition rate ([2]; 30 mg/kg, solvent physiological saline (printed once, above)): 78% | Brochoconstriction inhibition rate ([1]; 3.0 mg/0.5 ml): 32% | Brochoconstriction inhibition rate ([1]; 10.0 mg/0.5 ml): 46% | airway contraction / bronchoconstriction (FIG. 1) [6]: inhibited airway contract ion | inhibition in vivo at 1 mg/kg [5]: 6% | inhibition in vivo at 3 mg/kg [5]: 16% | inhibition in vivo at 10 mg/kg [5]: 40% | IC50 [3]: 100 µM | inhibition at 0.1 µM [4]: 24%

CC1=CC(N2CCCCCC2)C(O)C(C)(C)CC1=O (stereo not drawn) [Example 17, 4-hexamethyleneimino-5-hydroxy-2,6,6-trimethyl-2-cyclohepten-1-one]
inhibition in vivo at 10 mg/kg [5]: 42%

CC1=CC(N2CCOCC2)C(O)C(C)(C)CC1=O (stereo not drawn) [Example 18, 5-hydroxy-4-morpholino-2,6,6-trimethyl-2-cyclohepten-1-one]
IC50 [7]: 98 µM | inhibition at 0.1 µM [4]: 39%

CC1=CC(N2CCN(C)CC2)C(O)C(C)(C)CC1=O (stereo not drawn) [Example 22, 5-hydroxy-4-(4-methylpiperazino)-2,6,6-trimethyl-2-cyclohepten-1-one]
Brochoconstriction inhibition rate ([1]; 3.0 mg/0.5 ml): 17% | inhibition at 0.1 µM [4]: 48%

CC1=CC(N2CCC(O)CC2)C(O)C(C)(C)CC1=O (stereo not drawn) [Example 23, 4-(4-hydroxypiperidino)-5-hydroxy-2,6,6-trimethyl-2-cyclohepten-1-one]
Brochoconstriction inhibition rate ([1]; 3.0 mg/0.5 ml): 23%

CC1=CC(N2CCC3(CC2)OCCO3)C(O)C(C)(C)CC1=O (stereo not drawn) [Example 26, 4-(1,4-dioxa-8-aza-spiro[5.4]decan-8-yl)-5-hydroxy-2,6,6-trimethyl-2-cyclohepten-1-one]
Brochoconstriction inhibition rate ([1]; 3.0 mg/0.5 ml): 53% | IC50 [3]: 36 µM

CC1=CC(N(C)Cc2ccccc2)C(O)C(C)(C)CC1=O (stereo not drawn) [Example 28, 5-hydroxy-4-(N-methylbenzylamino)-2,6,6-trimethyl-2-cyclohepten-1-one]
IC50 [3]: 11 µM

CC1=CC(N2CCCCC2)C(O)C(C)(C)CC1=NO (stereo not drawn) [Example 30, 5-hydroxy-4-piperidino-2,6,6-trimethyl-2-cyclohepten-1-one oxime]
Brochoconstriction inhibition rate ([1]; 3.0 mg/0.5 ml): 42%
